Laboratory results from ChEMBL document CHEMBL3603746, “Discovery of New H2S Releasing Phosphordithioates and 2,3-Dihydro-2-phenyl-2-sulfanylenebenzo[d][1,3,2]oxazaphospholes with Improved Antiproliferative Activity” (J Med Chem, 2015).

How the values were obtained:
[1] = system: MCF7; assay: Cytotoxicity against human MCF7 cells assessed as inhibition of cell proliferation after 4 days by crystal violet assay; format: functional, cell-based; settings: MCF7, 96 h
[2] = system: SK-OV-3; assay: Cytotoxicity against human SKOV3 cells assessed as inhibition of cell proliferation after 4 days by crystal violet assay; format: functional, cell-based; settings: SK-OV-3, 96 h
[3] = Toxicity in human WI38 cells assessed as inhibition of cell proliferation after 4 days by crystal violet assay
[4] = Therapeutic index, ratio of IC50 for human WI38 cells to IC50 for human SKOV3 cells; settings: WI38 cells and SKOV3 cells
[5] = Induction of H2S release in 10% PBS:MeCN solution at 1 mM incubated at 22 degC in dark condition measured at 72 hrs by 2, 6-dansyl azide probed-based fluorescence assay; format: physicochemical; settings: buffer, 1000 µM
[6] = Induction of H2S release in 10% PBS:MeCN solution at 100 uM incubated at 37 degC in dark condition measured at 72 hrs by 2, 6-dansyl azide probed-based fluorescence assay; format: physicochemical; settings: buffer
[7] = Induction of H2S release in 10% PBS:MeCN solution at 5 mM incubated at 22 degC in dark condition measured at 96 hrs by 2, 6-dansyl azide probed-based fluorescence assay relative to control; settings: buffer, 5000 µM
[8] = Induction of H2S release in 10% PBS:MeCN solution at 5 mM incubated at 37 degC in dark condition measured at 96 hrs by 0.2 mM 2, 6-dansyl azide probed-based fluorescence assay relative to control; format: physicochemical; settings: buffer, 5000 µM
[9] = Induction of H2S release in 10% PBS:MeCN solution at 5 mM incubated at 37 degC in dark condition measured at 96 hrs by 2, 6-dansyl azide probed-based fluorescence assay relative to GYY4137; format: physicochemical; settings: buffer, 5000 µM
[10] = system: MCF7; assay: cells; format: functional, cell-based; settings: Homo sapiens, MCF7, 72 h
Description: Cytotoxicity against human MCF7 cells assessed as inhibition of cell proliferation after 72 hrs by MTT assay

[11] = system: MDA-MB-231; assay: cells; format: functional, cell-based; settings: Homo sapiens, MDA-MB-231, 72 h
Description: Cytotoxicity against human MDA-MB-231 cells assessed as inhibition of cell proliferation after 72 hrs by MTS assay

[12] = Effective permeability of the compound at 500 uM after 6 hrs by PAMPA; settings: PAMPA
[13] = Effective permeability of the compound at 500 uM after 16 hrs by PAMPA
[14] = physchem; settings: DMSO, pH 7.4
Description: Kinetic solubility of the compound in DMSO at pH 7.4 measured at 3 hrs by multiscreen filter paper-based UV absorbance analysis

[15] = physchem; settings: DMSO, pH 7.4; remark: listed apart in the source
Description: Kinetic solubility of the compound in DMSO at pH 7.4 measured at 24 hrs by multiscreen filter paper-based UV absorbance analysis

[16] = Induction of H2S release in 10% PBS:MeCN solution at 0.5 mM incubated at 22 degC in dark condition measured at 48 hrs by 2, 6-dansyl azide probed-based fluorescence assay relative to control; format: physicochemical; settings: buffer, 500 µM
[17] = Induction of H2S release in 10% PBS:MeCN solution at 0.5 mM incubated at 37 degC in dark condition measured at 48 hrs by 1 mM 2, 6-dansyl azide probed-based fluorescence assay relative to control; format: physicochemical; settings: buffer, 500 µM
[18] = Induction of H2S release in 10% PBS:MeCN solution assessed as ratio of H2S level at 37 degC to H2S level at 22 degC at 0.5 mM incubated in dark condition measured at 96 hrs by 2, 6-dansyl azide probed-based fluorescence assay; format: physicochemical; settings: buffer, 500 µM
[19] = Induction of H2S release in 10% PBS:MeCN solution at 0.5 mM incubated at 22 degC in dark condition measured at 48 hrs by 2, 6-dansyl azide probed-based fluorescence assay relative to 12 uM of GYY4137; format: physicochemical; settings: buffer, 500 µM
[20] = Induction of H2S release in 10% PBS:MeCN solution at 0.5 mM incubated at 37 degC in dark condition measured at 48 hrs by 2, 6-dansyl azide probed-based fluorescence assay relative to 6.9 uM of GYY4137; format: physicochemical; settings: buffer, 500 µM
[21] = Therapeutic index, ratio of IC50 for human WI38 cells to IC50 for human MCF7 cells; settings: WI38 cells and MCF7 cells
[22] = Therapeutic index, ratio of IC50 for human WI38 cells to IC50 for human MBA-MD-231 cells; settings: WI38 cells and MBA-MD-231 cells
[23] = Therapeutic index, ratio of IC50 for human WI38 cells to IC50 for human PC3 cells; settings: WI38 cells and PC3 cells
[24] = system: Hepatocyte; assay: Toxicity in transforming growth factor alpha transgenic mouse hepatocytes at 100 uM after 24 hrs by CellTiter-Glo cell viability assay; format: cell-based
[25] = Induction of H2S release in 10% PBS:MeCN solution at 5 mM incubated at 37 degC in dark condition measured at 96 hrs by 1 mM 2, 6-dansyl azide probed-based fluorescence assay relative to control; settings: buffer, 5000 µM
[26] = Induction of H2S release in 10% PBS:MeCN solution assessed as ratio of H2S level at 37 degC to H2S level at 22 degC at 5 mM incubated in dark condition measured at 96 hrs by 2, 6-dansyl azide probed-based fluorescence assay; settings: buffer, 5000 µM
[27] = Induction of H2S release in 10% PBS:MeCN solution at 5 mM incubated at 22 degC in dark condition measured at 96 hrs by 2, 6-dansyl azide probed-based fluorescence assay relative to GYY4137; format: physicochemical; settings: buffer, 5000 µM
[28] = system: PC-3; assay: cells; format: functional, cell-based; settings: Homo sapiens, PC-3, 72 h
Description: Cytotoxicity against human PC3 cells assessed as inhibition of cell proliferation after 72 hrs by MTT assay

[29] = Induction of H2S release in aqueous acetonitrile solution at 200 uM measured over 4 days by probe 21-based fluorescence assay; settings: buffer, 96 h
[30] = Induction of H2S release in aqueous acetonitrile solution at 400 uM measured over 4 days by probe 21-based fluorescence assay; settings: buffer, 96 h

Row | SMILES | IC50 [1] [µM] | IC50 [2] [µM] | IC50 at 4 days [3] [µM] | selectivity ratio [4] | Activity [5] [µM] | Activity [6] [µM] | %max [7] [%] | fold change (FC) [9] | IC50 [10] [µM] | IC50 [11] [µM] | %max [16] [%] | %max [17] [%] | Ratio [18] | fold change (FC) [19] | fold change (FC) [20] | selectivity ratio [21] | selectivity ratio [22] | selectivity ratio [23] | further results
1 | COc1ccc(P2(=S)Nc3ccc(C)cc3O2)cc1 (configuration not stated) | 93.2 | 211 | > 400 | 1.9 | 59 | 48.2 |  |  |  |  |  |  |  |  |  |  |  |  | 
2 | CCNCCOP(=S)(S)c1ccc(OC)cc1 (configuration not stated) | > 400 | > 400 |  |  |  |  | < 0.01 | < 0.1 | 481 | > 500 |  |  |  |  |  |  |  |  | %max [8]: 0.03%; Papp at 6 h, 500 µM [12]: 0.13 nm/s; Papp at 16 h, 500 µM [13]: 0.041 nm/s; solubility kinetic at 3 h [14]: > 0.29 mg/mL; solubility kinetic at 24 h [15]: > 0.29 mg/mL
3 | C1COCCN1.S=P(S)(N1CCOCC1)N1CCOCC1 | 221 | 267 | 683 | 2.6 |  |  |  |  | 331 | 381 | 67.2 | 76.2 | 1.1 | 56 | 110.4 | 2.6 | 2.6 | 2.6 | Activity [24]: Non-toxic
4 | COc1ccc(P2(=S)Nc3cc(F)ccc3O2)cc1 (configuration not stated) | 33.6 | 70.8 | > 200 | 2.8 | 53.8 | 33.3 |  |  |  |  |  |  |  |  |  |  |  |  | 
5 | NCC1CCCCC1.S=P(S)(NCC1CCCCC1)NCC1CCCCC1 | 172 | 179 | 287 | 1 |  |  |  |  | > 500 | > 500 | 0.82 | 21.8 | 2.7 | 6.8 | 31.6 | 1 | 1 | 1 | 
6 | CN1c2ccccc2OP1(=S)c1ccccc1 (configuration not stated) | 72.7 | 69.4 | 207 | 2.8 | 24.4 | 20.7 |  |  |  |  |  |  |  |  |  | 2.8 |  |  | 
7 | Cc1ccc2c(c1)OP(=S)(c1ccc(Oc3ccccc3)cc1)N2 (configuration not stated) | 186 | 196 | > 400 | 2 | 39.2 | 59.9 |  |  |  |  |  |  |  |  |  |  |  |  | 
8 | C1COCCN1.S=P(S)(c1ccc(Oc2ccccc2)cc1)N1CCOCC1 (configuration not stated) | 195 | 326 | 656 | 2 |  |  | 1.68 | 0.9 | 163 | 95.2 |  |  |  |  |  | 2 | 2 | 2 | %max [25]: 5.54%; Ratio [26]: 3.3; fold change (FC) [27]: 1.2; IC50 [28]: 102 µM; Activity [24]: Non-toxic; Papp at 6 h, 500 µM [12]: 0.15 nm/s; Papp at 16 h, 500 µM [13]: 0.13 nm/s; Activity [29]: 4.14 µM; Activity [30]: 5.47 µM
9 | C1COCCN1.COc1ccc(P(=S)(S)OC(C)C)cc1 (configuration not stated) | 266 | 200 | > 400 | 1.5 |  |  | 0.04 | < 0.1 | 205 | 84.6 |  |  |  |  |  | 1.5 | 1.5 |  | %max [8]: 0.12%; Ratio [26]: 3; fold change (FC) [27]: < 0.1
10 | NCc1ccccc1.S=P(S)(NCc1ccccc1)NCc1ccccc1 | 145 | 189 | 266 | 1.4 |  |  |  |  | 218 | 104 | 2.4 | 1.9 | 0.8 | 2 | 2.8 | 1.4 | 1.4 | 1.4 | 
